Data set [1] is described as follows: solubility of terbinafine in benzyl alcohol. The data set is classed as physicochemical. Conditions: room temperature, with stirring. As for the experimental part: In a preferred embodiment, the antifungal agent, terbinafine (an allylamine compound) used to treat infections of the nails and of the sub and peri-plantar regions of the foot (moccasin distribution) is dissolved in benzyl alcohol at room temperature with the aid of stirring. […] Two grams of terbinafine are therefore dissolved in 5 ml of benzyl alcohol. To this solution 85 ml of ethyl alcohol anhydrous and 10ml of distilled water are added. The final concentration of the active compound terbinafine, is 2% and that of the preferred carrier, benzyl alcohol 5%.

The test system of data set [2] is T. rubrum, T. mentagrophytes. The data set is described as follows: clinical study, topical application, onychomycosis. The data set is classed as in vivo, human. To be noted: after discontinuation of therapy. The source says:
A total of 10 patients, identified clinically and mycologically (T. rubrum, T. mentagrophytes) were all mycologically cured. Within two weeks of applications all patients with intractable, longstanding (of up to 15 years or more) moccasin distribution fungal dermatomycosis were clinically and mycologically cured. After 2 months of application all patients with severe onychomycosis, also of very long standing duration, appeared mycologically cured (negative cultures). […] Some nails continued to display dystrophic changes commensurate with the slow rate of nail growth and replacement. This persistent and possible prophylactic response is attributed to the unique solubility characteristics of the compounds in question and to the ability of the selected solvents to deliver the drug to the subungual or keratin rich regions where the fungi accumulate, and to persist at such sites in a microcrystalline form after precipitation.
Compositions according to the present invention can be applied by conventional methods, including the use of a small brush with a nail-lacquer bottle, a roll-on applicator, or by a squeeze bottle with a small opening. In the results cited above, a small brush with a nail-lacquer bottle was used.

In the case of `CN(C/C=C/C#CC(C)(C)C)Cc1cccc2ccccc12` [terbinafine], the “solubility in benzyl alcohol” value in data set [1] was “greater than 40 % w/vol”. Also, the “recurrence upon discontinuation of therapy” value in data set [2] is “lack of any recurrence”.

The record behind these values is patent publication US20050238672A1, “Antifungal drug delivery” (priority 2004, published 2005).
